Patent US10669284B2, “Fused thiazolopyrimidine derivatives as MNKS inhibitors” (LIFEARC, priority 2015, dated 2020)

What was measured:
RPS6KA5 = RPS6KA5 (Homo sapiens, UniProt O75582); assay: Kinase selectivity screen RPS6KA5; details: read-out: % inhibition of RPS6KA5
KIT = KIT (Homo sapiens, UniProt P10721); assay: Kinase selectivity screen KIT; details: read-out: % inhibition of KIT
PIM2 = PIM2 (Homo sapiens, UniProt Q9P1W9); assay: Kinase selectivity screen PIM2; details: read-out: % inhibition of PIM2
Sequence of PIM2 (Q9P1W9 whole entry, species assumed): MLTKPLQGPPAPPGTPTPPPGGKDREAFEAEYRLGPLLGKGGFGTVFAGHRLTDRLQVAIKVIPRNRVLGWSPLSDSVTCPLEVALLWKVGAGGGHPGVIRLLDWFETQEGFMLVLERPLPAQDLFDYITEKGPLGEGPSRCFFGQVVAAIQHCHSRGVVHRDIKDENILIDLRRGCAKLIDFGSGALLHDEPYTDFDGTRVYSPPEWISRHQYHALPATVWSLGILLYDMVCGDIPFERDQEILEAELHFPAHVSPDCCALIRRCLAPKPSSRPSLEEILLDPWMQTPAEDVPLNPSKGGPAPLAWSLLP

STK11 = biological target: T1, STK11 (Homo sapiens, UniProt Q15831); assay: Kinase selectivity screen STK11; details: read-out: % inhibition of STK11
T1 sequence (Q15831 1-433): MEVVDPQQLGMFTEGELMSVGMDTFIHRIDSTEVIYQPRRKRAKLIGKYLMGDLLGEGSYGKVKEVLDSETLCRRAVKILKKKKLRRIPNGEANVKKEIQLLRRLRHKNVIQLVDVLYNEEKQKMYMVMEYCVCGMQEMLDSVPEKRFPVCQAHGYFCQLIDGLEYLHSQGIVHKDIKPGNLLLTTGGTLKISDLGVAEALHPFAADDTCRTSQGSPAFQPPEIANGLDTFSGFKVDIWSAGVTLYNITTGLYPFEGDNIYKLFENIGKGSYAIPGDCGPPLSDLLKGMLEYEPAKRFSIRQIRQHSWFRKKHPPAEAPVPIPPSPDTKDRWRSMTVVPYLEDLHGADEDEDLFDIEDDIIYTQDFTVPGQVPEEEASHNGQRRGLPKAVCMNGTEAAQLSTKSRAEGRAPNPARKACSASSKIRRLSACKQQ
T1 sequence (Q7RTN6 1-431 partner): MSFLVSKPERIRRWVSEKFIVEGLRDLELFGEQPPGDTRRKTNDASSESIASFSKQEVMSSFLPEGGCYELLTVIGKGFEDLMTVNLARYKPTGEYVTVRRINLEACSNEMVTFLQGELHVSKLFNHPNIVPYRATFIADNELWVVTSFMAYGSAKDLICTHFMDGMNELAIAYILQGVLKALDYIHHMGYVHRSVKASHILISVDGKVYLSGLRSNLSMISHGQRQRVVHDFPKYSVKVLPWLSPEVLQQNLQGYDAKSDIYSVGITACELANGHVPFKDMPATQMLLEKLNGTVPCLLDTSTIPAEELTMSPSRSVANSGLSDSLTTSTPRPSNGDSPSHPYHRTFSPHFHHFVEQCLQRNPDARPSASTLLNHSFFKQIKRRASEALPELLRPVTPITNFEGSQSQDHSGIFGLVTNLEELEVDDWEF
T1 sequence (Q9Y376 1-341 partner): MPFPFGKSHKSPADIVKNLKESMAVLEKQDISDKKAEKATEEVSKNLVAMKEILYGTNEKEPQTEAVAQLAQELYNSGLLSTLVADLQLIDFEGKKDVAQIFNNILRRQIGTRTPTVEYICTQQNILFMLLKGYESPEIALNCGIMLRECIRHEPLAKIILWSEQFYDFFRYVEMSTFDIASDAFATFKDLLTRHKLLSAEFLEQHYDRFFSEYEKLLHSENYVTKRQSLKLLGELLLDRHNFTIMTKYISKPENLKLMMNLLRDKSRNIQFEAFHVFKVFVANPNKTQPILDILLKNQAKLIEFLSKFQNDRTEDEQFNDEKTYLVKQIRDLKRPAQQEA

MTOR = MTOR (Homo sapiens, UniProt P42345); assay: Kinase selectivity screen MTOR; details: read-out: % inhibition of MTOR
CaMK1 = CaMK1 (Homo sapiens, UniProt Q14012); assay: Kinase selectivity screen CaMK1; details: read-out: % inhibition of CaMK1
Sequence of CaMK1 (Q14012 whole entry): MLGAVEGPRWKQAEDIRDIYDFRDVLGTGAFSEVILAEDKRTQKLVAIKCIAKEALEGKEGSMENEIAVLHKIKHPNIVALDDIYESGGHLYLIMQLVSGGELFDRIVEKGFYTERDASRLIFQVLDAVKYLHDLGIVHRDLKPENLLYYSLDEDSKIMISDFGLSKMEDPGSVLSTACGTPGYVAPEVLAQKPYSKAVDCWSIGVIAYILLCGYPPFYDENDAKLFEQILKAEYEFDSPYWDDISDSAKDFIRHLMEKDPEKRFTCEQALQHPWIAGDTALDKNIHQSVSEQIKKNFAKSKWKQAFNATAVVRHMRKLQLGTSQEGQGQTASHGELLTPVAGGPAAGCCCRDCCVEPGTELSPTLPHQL

NUAK1 = biological target: T2, NUAK1 (Homo sapiens, UniProt O60285); assay: Kinase selectivity screen NUAK1; details: read-out: % inhibition of NUAK1
T2 sequence (O60285 1-661): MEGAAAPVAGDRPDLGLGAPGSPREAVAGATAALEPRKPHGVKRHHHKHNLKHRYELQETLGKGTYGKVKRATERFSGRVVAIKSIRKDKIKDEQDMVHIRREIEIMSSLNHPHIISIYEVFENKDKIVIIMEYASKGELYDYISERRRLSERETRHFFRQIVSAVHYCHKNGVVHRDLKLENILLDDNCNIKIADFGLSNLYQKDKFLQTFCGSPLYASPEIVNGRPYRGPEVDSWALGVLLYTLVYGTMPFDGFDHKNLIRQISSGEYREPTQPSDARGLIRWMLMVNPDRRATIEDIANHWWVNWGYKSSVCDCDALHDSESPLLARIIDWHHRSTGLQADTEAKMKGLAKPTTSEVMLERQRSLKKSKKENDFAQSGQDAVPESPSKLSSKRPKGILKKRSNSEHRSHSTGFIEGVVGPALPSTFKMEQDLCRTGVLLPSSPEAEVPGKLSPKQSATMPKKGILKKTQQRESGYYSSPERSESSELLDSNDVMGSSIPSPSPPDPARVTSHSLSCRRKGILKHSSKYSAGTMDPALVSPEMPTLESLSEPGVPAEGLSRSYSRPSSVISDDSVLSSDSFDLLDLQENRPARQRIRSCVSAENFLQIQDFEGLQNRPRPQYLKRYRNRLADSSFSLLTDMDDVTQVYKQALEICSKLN

FGFR4 = FGFR4 (Homo sapiens, UniProt P22455); assay: Kinase selectivity screen FGFR4; details: read-out: % inhibition of FGFR4
Sequence of FGFR4 (P22455 22-802, species assumed): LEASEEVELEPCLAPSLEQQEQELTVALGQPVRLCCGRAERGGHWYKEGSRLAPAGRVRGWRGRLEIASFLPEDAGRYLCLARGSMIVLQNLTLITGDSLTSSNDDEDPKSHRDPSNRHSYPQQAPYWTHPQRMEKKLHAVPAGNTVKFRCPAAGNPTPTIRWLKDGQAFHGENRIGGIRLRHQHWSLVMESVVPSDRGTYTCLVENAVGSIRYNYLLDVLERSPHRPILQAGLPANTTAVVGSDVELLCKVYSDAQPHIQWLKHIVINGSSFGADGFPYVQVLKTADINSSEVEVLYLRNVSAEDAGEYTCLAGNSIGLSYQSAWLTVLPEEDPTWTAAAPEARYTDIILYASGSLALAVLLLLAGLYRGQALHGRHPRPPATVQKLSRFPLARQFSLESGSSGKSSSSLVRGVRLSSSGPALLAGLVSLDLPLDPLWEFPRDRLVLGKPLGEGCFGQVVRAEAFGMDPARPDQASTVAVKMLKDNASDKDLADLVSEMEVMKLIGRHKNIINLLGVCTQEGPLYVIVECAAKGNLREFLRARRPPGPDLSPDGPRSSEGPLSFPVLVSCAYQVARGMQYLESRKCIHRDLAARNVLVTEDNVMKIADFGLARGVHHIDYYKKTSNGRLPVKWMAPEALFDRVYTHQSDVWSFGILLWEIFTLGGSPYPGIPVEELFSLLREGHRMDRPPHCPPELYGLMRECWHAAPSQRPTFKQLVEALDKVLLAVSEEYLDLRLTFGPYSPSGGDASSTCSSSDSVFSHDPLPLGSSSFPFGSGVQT

PIP4K2A = biological target: T3, PIP4K2A (Homo sapiens, UniProt P48426); assay: Kinase selectivity screen PIP4K2A; details: read-out: % inhibition of PIP4K2A
T3 sequence (P48426 1-406): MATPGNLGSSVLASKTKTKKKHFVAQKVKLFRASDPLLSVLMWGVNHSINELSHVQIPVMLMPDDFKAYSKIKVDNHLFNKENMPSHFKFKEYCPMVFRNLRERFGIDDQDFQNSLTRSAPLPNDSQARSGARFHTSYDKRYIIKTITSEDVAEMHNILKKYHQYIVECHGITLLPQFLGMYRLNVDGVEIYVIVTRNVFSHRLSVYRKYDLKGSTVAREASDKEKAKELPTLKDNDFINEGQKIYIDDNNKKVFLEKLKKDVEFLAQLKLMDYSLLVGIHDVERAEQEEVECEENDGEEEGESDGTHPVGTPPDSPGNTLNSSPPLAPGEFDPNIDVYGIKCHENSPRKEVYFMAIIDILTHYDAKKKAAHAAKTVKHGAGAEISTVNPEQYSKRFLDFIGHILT

PAK4 = PAK4 (Homo sapiens, UniProt O96013); assay: Kinase selectivity screen PAK4; details: read-out: % inhibition of PAK4
Sequence of PAK4 (O96013 whole entry, species assumed): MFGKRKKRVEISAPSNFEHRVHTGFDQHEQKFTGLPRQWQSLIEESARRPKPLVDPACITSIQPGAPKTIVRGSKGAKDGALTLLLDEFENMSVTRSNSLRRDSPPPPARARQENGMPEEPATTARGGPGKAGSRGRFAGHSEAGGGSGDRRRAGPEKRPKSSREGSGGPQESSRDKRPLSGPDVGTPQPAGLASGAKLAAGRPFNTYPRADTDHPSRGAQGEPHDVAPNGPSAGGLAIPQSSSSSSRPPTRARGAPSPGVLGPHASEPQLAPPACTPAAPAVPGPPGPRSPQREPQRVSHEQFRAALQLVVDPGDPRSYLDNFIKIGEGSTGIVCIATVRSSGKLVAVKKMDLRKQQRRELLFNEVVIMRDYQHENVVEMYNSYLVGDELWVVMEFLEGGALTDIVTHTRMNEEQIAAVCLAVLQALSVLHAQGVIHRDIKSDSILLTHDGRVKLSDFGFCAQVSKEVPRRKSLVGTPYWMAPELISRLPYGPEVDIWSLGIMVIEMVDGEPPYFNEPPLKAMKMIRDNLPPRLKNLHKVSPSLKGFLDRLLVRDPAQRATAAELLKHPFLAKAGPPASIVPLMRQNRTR

Sequence of KIT (P10721 26-976, species assumed): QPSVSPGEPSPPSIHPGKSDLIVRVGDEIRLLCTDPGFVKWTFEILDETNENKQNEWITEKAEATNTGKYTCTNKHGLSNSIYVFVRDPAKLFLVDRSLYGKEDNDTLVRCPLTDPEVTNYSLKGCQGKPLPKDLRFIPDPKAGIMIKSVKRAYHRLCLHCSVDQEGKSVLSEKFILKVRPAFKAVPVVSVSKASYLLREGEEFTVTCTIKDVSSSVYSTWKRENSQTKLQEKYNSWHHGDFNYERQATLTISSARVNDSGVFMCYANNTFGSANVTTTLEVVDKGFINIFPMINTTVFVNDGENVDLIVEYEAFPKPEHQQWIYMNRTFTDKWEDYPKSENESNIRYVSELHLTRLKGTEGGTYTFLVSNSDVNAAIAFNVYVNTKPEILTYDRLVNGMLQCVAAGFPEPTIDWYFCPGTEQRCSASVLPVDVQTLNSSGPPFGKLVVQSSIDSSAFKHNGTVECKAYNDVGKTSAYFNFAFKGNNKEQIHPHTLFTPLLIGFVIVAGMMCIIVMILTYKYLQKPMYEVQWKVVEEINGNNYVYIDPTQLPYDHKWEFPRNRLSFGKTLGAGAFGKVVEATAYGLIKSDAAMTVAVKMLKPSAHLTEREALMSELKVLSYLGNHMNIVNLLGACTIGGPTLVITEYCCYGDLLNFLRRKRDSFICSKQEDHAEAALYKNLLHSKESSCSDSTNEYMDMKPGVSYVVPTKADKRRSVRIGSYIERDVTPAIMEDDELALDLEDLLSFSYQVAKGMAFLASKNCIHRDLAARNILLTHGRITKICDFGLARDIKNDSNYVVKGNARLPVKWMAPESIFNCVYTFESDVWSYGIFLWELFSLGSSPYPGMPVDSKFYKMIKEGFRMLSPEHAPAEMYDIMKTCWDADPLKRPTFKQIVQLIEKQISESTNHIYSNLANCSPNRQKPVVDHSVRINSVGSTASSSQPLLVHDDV
Sequence of RPS6KA5 (O75582 whole entry, species assumed): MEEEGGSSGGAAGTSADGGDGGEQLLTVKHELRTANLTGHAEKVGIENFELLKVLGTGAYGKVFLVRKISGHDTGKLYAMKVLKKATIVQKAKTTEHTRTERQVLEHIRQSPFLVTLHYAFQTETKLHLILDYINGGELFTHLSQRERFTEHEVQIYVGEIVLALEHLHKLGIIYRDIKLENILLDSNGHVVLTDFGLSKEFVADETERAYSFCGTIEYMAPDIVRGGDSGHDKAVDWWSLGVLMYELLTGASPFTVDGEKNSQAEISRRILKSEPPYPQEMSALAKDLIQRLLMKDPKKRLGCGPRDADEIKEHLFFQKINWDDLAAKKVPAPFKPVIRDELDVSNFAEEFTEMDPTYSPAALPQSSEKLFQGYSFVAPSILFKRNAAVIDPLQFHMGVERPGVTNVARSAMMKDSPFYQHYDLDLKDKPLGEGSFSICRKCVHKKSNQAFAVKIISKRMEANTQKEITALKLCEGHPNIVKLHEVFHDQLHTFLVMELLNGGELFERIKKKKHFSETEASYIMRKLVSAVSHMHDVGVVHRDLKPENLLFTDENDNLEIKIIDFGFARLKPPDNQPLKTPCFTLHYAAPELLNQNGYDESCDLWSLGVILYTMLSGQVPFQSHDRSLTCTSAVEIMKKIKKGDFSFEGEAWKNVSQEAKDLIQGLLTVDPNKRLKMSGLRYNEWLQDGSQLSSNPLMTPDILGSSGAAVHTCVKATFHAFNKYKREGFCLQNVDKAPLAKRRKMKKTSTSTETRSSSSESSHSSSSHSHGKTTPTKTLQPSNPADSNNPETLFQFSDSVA

| SMILES | inhibition at 1 µM (RPS6KA5) | inhibition at 1 µM (KIT) | inhibition at 1 µM (PIM2) | inhibition at 1 µM (STK11) | inhibition at 1 µM (MTOR) | inhibition at 1 µM (CaMK1) | inhibition at 1 µM (NUAK1) | inhibition at 1 µM (FGFR4) | inhibition at 1 µM (PIP4K2A) | inhibition at 1 µM (PAK4) |
| --- | --- | --- | --- | --- | --- | --- | --- | --- | --- | --- |
| CC(C)Oc1cc(F)ccc1Nc1ncnc2sc(C(=O)NCC3CCNCC3)nc12 [Example 10, 7-(4-fluoro-2-isopropoxy-anilino)-N-(4-piperidylmethyl)thiazolo[5,4-d]pyrimidine-2-carboxamide] | 0% | 0% | 7% | 21% | 4% | 11% | 15% | 0% | 12% | 15% |
| CN(C)CCCNC(=O)c1nc2c(N3CCc4cc(F)ccc43)ncnc2s1 [Example 64, N-[3-(dimethylamino)propyl]-7-(5-fluoroindolin-1-yl)thiazolo[5,4-d]pyrimidine-2-carboxamide] | 24% | 0% | 42% | 10% | 3% | 18% | 43% | 0% | 0% | 4% |
| O=C(NCC1CCNCC1)c1nc2c(N3CCc4cc(F)ccc43)ncnc2s1 [Example 58, 7-(5-fluoroindolin-1-yl)-N-(4-piperidylmethyl)thiazolo[5,4-d]pyrimidine-2-carboxamide] | 0% | 7% | 13% | 7% | 0% | 11% | 33% | 10% | 7% | 0% |
